What was measured:
Type in all cases: in vivo
[1] = test system: mouse host-versus-graft rejection reaction; assay: Inhibition activity on mouse host-versus-graft rejection reaction (popliteal lymph node weight); conditions: ip, inhibition of popliteal lymph node weight increase, C3H/HeN mice, intraperitoneal once per day, 4 times
Protocol: Experiment example 2 was carried out by referring to the methods described in Transplantation, Vol. 55, No. 3, pp. 578 to 591, 1993. The spleens from BALB/c male mice which were6 to 23 weeks old (Japan SLC) were collected. The spleens were extracted in RPMI-1640 medium (Sigma), and then turned into a spleen cell suspension by grinding them with 2 glass slides and then passing the ground matter through a strainer (70 microns, Falcon). The spleen cell suspensions were centrifuged, and the supernatants were removed. Then, an ammonium chloride-tris isotonic buffer solution was added, and the red blood cells were hemolyzed. After centrifuging and washing 3 times with RPMI-1640 medium, the cells were suspended in RPMI-1640 medium. Mitomycin C (Kyowa Hakko) was added thereto so that the final concentration was 25 μg/mL, and the cells were incubated for 30 minutes at 37° C. under 5% CO2. After centrifuging and washing 3 times with RPMI-1640 medium, the cells were suspended in RPMI-1640 medium so that the concentration was 2.5×10^8 cells/mL. These cells were used as a stimulator cell suspension. 20 μL (5×10^6 cells/mouse) of the stimulator cell suspension was injected subcutaneously into the right hind-foodpad of C3H/HeN male mice which were6 to 11 weeks old (Clea Japan) using a 27G needle and a microsyringe (Hamilton). For the normal control group, RPMI-1640 medium only was injected. After 4 days, the right popliteal lymph nodes were extracted, and their weight was measured using Mettler AT201 electronic scales (Mettler Toledo). From the day of the stimulator cell suspensions being injected to 3 days thereafter, the test compounds were intraperitoneally administered on consecutive days once per day, for a total of 4 times. For the control group, only a solvent having the same composition as that used in the preparation of the test compounds was administered in the same manner. As the solvent, basically a physiological saline containing 0.5% DMSO was used (suitably adjusted according to the solubility of the compound). The inhibition ratio was calculated using the following equation. [formula]

[2] = test system: white blood cells in mouse peripheral blood; assay: Activity on total number of white blood cells in mouse peripheral blood; conditions: BALB/c mice, blood collected 6 hours after administration
Protocol: The test compounds were dissolved or suspended in DMSO, and then a physiological saline solution was added to make dosing solutions (DMSO final concentration 1%). If the dosing solutions were not in a dissolved or a uniform suspended state, Tween 80 was added so that the final concentration thereof was 0.01 to 0.1%. The resultant solutions were then sonicated to form a fine suspension. These test compound solutions were intraperitoneally administered in respective amounts of 0.1 mL or 0.2 mL per 10 g of body weight to BALB/cCrSlc male mice (8 to 14 weeks old, Japan SLC). For the control group, only a solvent having the same composition as that used in the preparation of the test compounds was administered in the same manner. Six hours after administration of the test compound solutions, blood was collected from the postcava under ether anesthesia (10 μL of 10% EDTA was added as an anticoagulant). Measurement of the total number of white blood cells was carried out using the automated blood cell counting apparatus Sysmex F-820 (Sysmex). Here, compounds having an inhibition ratio of 60% or more were marked as “+++”, compounds having an inhibition ratio of less than 60% but more than or equal to 50% were marked as “++”, and compounds having an inhibition ratio of less than 50% but more than or equal to 40% were marked as “+”. Furthermore, the inhibition ratios are the results from a dose of 0.3 mg/kg (“[ ]” are the results from 3 mg/kg).

[3] = Effect on rat lung weight; conditions: Wistar rats, lungs extracted 6 hours later
Protocol: Crlj:Wistar rats (male) 5 to 8 weeks old were used in the experiment. An aqueous solution of the test compounds was respectively orally administered in an amount of 0.5 mL per 100 g of rat body weight. The lungs were extracted 6 hours later, and the lung weight was measured.

[4] = test system: allogenic skin graft for rats; assay: Rat skin graft model (allogenic skin graft survival); conditions: for MST: oral administration once a day
Protocol: Using a rat skin graft model, activity on the rejection reaction was investigated.
Skin from the abdomen of a LEW/CrlCrlj rat serving as the donor (male, 5 weeks old, Japan Charles River) was peeled away, and the panniculus carnosus muscule layer under the skin was removed. Then, a 1.8 cm×1.8 cm skin specimen (graft) was prepared. Next, a F344/DuCrlCrlj rat serving as the recipient (male, 5 weeks old, Japan Charles River) was anesthetized by intraperitoneal administration of 40 mg/kg of sodium pentobarbital (nembutal injection, Dainippon Sumitomo Pharma). The hair of the back of the rat was shorn off by electric clippers, and then the remaining hair was further shaved off using a razor. Then, a 1.8 cm×1.8 cm mark was made on the back of the rat, and a shallow cut was made along the mark with a scalpel. Next, the skin was peeled away along this cut by tweezers to produce a graft bed. Several drops of sterile physiological saline solution (Otsuka normal saline, Otsuka Pharmaceutical) were dropped onto the graft bed, and then wiped away with gauze. Several drops of penicillin (crystalline penicillin GpotassiumMeiji, Meiji Seika) were then dropped thereon. Next, the graft was placed on the graft bed. After absorbing excess moisture with sterile gauze, a first-aid bandaid was stuck over the graft. Furthermore, an adhesive bandage was wrapped around the trunk of the rat. On the third day after the operation, a new adhesive bandage was wrapped thereover. On the fifth day after the operation, the bandaid and the bandages were cut open with scissors and removed. Observation of the graft was carried out on consecutive days from when the bandaid was removed (from the fifth day). A determination of graft rejection was made when 90% or more of the graft had died and tuned brown. The number of days from grafting until rejection was confirmed was taken as the survival period. The mean value of the survival period for each group was calculated as the mean survival time (MST). Investigation was carried out with 5 animals per group. All of the rats were housed in individual cages. The test compounds were dissolved in ultra-pure water, and were orally administered once a day, on consecutive days, from the graft day. For the control group, ultra-pure water was administered in the same manner.

[5] = dose 3 mg/kg (values in [ ]) intraperitoneal

For `C[C@](N)(CO)CCCc1ccc(Oc2cccc(C(F)(F)F)c2)cc1Cl.Cl` [Example 26, (R)-2-amino-5-[2-chloro-4-(3-trifluoromethylphenoxy)phenyl]-2-methylpentan-1-ol hydrochloride], the ED50 [1] was 0.1 to 1 mg/kg, the “Inhibition Ratio” value [2, 5] was “[+] (inhibition ratio of less than 50% but more than or equal to 40%)” and the “Effect on lung weight” value ([3]; up to a dose of 30 mg/kg oral) was “no effects whatsoever on lung weight”.
With `C[C@](N)(CO)CCCc1ccc(Sc2cccc(C(F)(F)F)c2)cc1Cl.Cl` [Example 27, (R)-2-amino-5-[2-chloro-4-(3-trifluoromethylphenylthio)phenyl]-2-methylpentan-1-ol hydrochloride] the ED50 [1] was under 0.1 mg/kg, the “Inhibition Ratio” value ([2]; dose 0.3 mg/kg intraperitoneal) was “+ (inhibition ratio of less than 50% but more than or equal to 40%)” and the “Effect on lung weight” value ([3]; up to a dose of 100 mg/kg oral) was “no effects whatsoever on lung weight”. The MST ([4]; 3 mg/kg) was 11.8 days, the MST ([4]; 10 mg/kg) was 14 days and the MST ([4]; 30 mg/kg) was 20.4< days. The “Survival period extension effect of the graft” value ([4]; individual administration, oral) was “survival period extension effect of the graft was found”.
For `C[C@](N)(CO)CCc1ccc(Oc2cccc(C(F)(F)F)c2)cc1Cl.Cl` [Example 28, (R)-2-amino-4-[2-chloro-4-(3-trifluoromethylphenoxy)phenyl]-2-methylbutan-1-ol hydrochloride], the ED50 [1] was 1 to 10 mg/kg and the “Inhibition Ratio” value ([2]; dose 0.3 mg/kg intraperitoneal) was “++ (inhibition ratio of less than 60% but more than or equal to 50%)”.
For `C[C@](N)(CO)CCc1ccc(Sc2cccc(C(F)(F)F)c2)cc1Cl.Cl` [Example 29, (R)-2-amino-4-[2-chloro-4-(3-trifluoromethylphenylthio)phenyl]-2-methylbutan-1-ol hydrochloride], the ED50 [1] was 0.1 to 1 mg/kg and the “Inhibition Ratio” value ([2]; dose 0.3 mg/kg intraperitoneal) was “+++ (inhibition ratio of 60% or more)”.
For `CCc1cccc(Sc2ccc(CCC[C@@](C)(N)CO)c(Cl)c2)c1.Cl` [Example 32, (R)-2-amino-5-[2-chloro-4-(3-ethylphenylthio)phenyl]-2-methylpentan-1-ol hydrochloride], the ED50 [1] was 0.1 to 1 mg/kg.
Compound `C[C@](N)(CO)CCCc1ccc(Sc2cccc(C(F)(F)F)c2)cc1F.Cl` [Example 35, (R)-2-amino-5-[2-fluoro-4-(3-trifluoromethylphenylthio)phenyl]-2-methylpentan-1-ol hydrochloride] has an ED50 [1] of 0.1 to 1 mg/kg.
For `CCC[C@](N)(CO)CCCc1ccc(Sc2cccc(C(F)(F)F)c2)cc1Cl.Cl` [Example 36, (R)-2-amino-5-[2-chloro-4-(3-trifluoromethylphenylthio)phenyl]-2-propylpentan-1-ol hydrochloride], the ED50 [1] was 0.1 to 1 mg/kg and the “Inhibition Ratio” value [2, 5] was “[++] (inhibition ratio of less than 60% but more than or equal to 50%)”.

— patent publication US8273748B2, “Amino alcohol derivative and immunosuppresive agent having same as an active ingredient” (Kyorin Pharmaceutical Co., Ltd., priority 2006, dated 2012)
